Assay [1] concerns Escherichia coli. Briefly: Antibacterial activity against Escherichia coli UTI89 incubated for 18 hrs by broth microdilution method. It is filed as functional.
Assay [2] concerns Escherichia coli. The assay can be described thus: Antibiofilm activity against Escherichia coli UTI89 incubated for 24 hrs. It is filed as functional.
For assay [3], the system named is Escherichia coli. The assay can be described thus: Antibiofilm activity against Escherichia coli UTI89 incubated for 24 hrs in presence of 1:2 ratio of ciprofloxacin to compound. It is filed as functional.
Assay [4] has as its system Escherichia coli. The assay can be described thus: Antibacterial activity against Escherichia coli UTI89 incubated for 18 hrs in presence of 1:2 ratio of ciprofloxacin to compound by broth microdilution method. It is filed as functional.
The subject of assay [5] is Escherichia coli. Briefly: Potentiation of ciprofloxacin-induced antibiofilm activity against Escherichia coli UTI89 assessed as increase in ciprofloxacin-induced reduction in CFU at 20 uM incubated for 24 hrs relative to control. It is filed as functional. Also on record: scale not given: the % may be the effect or the level left.
In assay [6] the test system is Escherichia coli. Briefly: Potentiation of ciprofloxacin-induced antibiofilm activity against Escherichia coli UTI89 assessed as increase in ciprofloxacin-induced log reduction in CFU at 40 uM incubated for 24 hrs. It is filed as functional.
The test system of assay [7] is Escherichia coli. Briefly: Antibiofilm activity against Escherichia coli UTI89 assessed as cell filamentation at 12.5 to 25 uM incubated for 24 hrs by SYTO9 and PI staining based fluorescence microscopic method. It is filed as functional, organism-based.
The subject of assay [8] is Escherichia coli. Briefly: Potentiation of ciprofloxacin-induced antibiofilm activity against Escherichia coli UTI89 assessed as increase in ciprofloxacin-induced reduction in CFU at 80 uM incubated for 24 hrs relative to control. Also on record: scale not given: the % may be the effect or the level left. It is filed as functional.
Assay [9] deals with Escherichia coli. Briefly: Ratio of MBEC for ciprofloxacin to compound for antibiofilm activity against Escherichia coli UTI89. It is filed as functional.
Assay [10] has as its system Escherichia coli. Briefly: Antibiofilm activity against Escherichia coli UTI89 assessed as reduction in viable bioflim associated cells at 12.5 uM incubated for 24 hrs relative to control. It is filed as functional.
Assay [11] concerns Escherichia coli. Briefly: Antibiofilm activity against Escherichia coli UTI89 at 400 uM incubated for 24 hrs by SYTO9 and PI staining based fluorescence microscopic method. It is filed as functional.
The test system of assay [12] is Escherichia coli. The assay can be described thus: Antibiofilm activity against Escherichia coli UTI89 assessed as small bacterial cells at 400 uM incubated for 24 hrs by SYTO9 and PI staining based fluorescence microscopic method. It is filed as functional, organism-based.
Assay [13] relates to Escherichia coli. The assay can be described thus: Antibiofilm activity against Escherichia coli UTI89 assessed as dead cells at 400 uM incubated for 24 hrs by SYTO9 and PI staining based fluorescence microscopic method. It is filed as functional, organism-based.
The test system of assay [14] is Escherichia coli. The assay can be described thus: Potentiation of ciprofloxacin-induced antibiofilm activity against Escherichia coli UTI89 assessed as increase in ciprofloxacin-induced log reduction in CFU at 80 uM incubated for 24 hrs. It is filed as functional.
Assay [15] deals with Escherichia coli. Briefly: Potentiation of ciprofloxacin-induced antibiofilm activity against Escherichia coli UTI89 assessed as increase in ciprofloxacin-induced reduction in CFU at 40 uM incubated for 24 hrs relative to control. It is filed as functional. Also on record: scale not given: the % may be the effect or the level left.
For assay [16], the system named is Escherichia coli. The assay can be described thus: Potentiation of ciprofloxacin-induced antibiofilm activity against Escherichia coli UTI89 assessed as increase in ciprofloxacin-induced log reduction in CFU at 20 uM incubated for 24 hrs. It is filed as functional.
The test system of assay [17] is Escherichia coli. The assay can be described thus: Antibiofilm activity against Escherichia coli UTI89 at 12.5 uM incubated for 24 hrs by SYTO9 and PI staining based fluorescence microscopic method. It is filed as functional.
The next assay has as its system T-24. Briefly: Cytotoxicity against human T24 cells assessed as reduction in cell viability incubated for 24 hrs by LDH assay. It is filed as cell-based.
The subject of assay [18] is Escherichia coli. The assay can be described thus: Antibiofilm activity against Escherichia coli UTI89 assessed as reduction in biofilm residing cells at 12.5 uM incubated for 24 hrs relative to control. It is filed as functional. Also on record: scale not given: the % may be the effect or the level left.
[19] abbreviates: Escherichia coli, UTI89, 18 h, read-out: MIC.

Molecules are shown by their SMILES. The source made the active and inactive calls. No cut-off for these calls is given here. Bounds are passed on as bounds.

In the case of `CON1C(C)(C)CC(C(=O)NCCCC[C@H](N)C(=O)N2CCN(c3cc4c(cc3F)c(=O)c(C(=O)O)cn4C3CC3)CC2)CC1(C)C`, the MIC in the assay with Escherichia coli [1] (setting [19]) was no more than 30.6 µM. This compound also came in with an MBEC with Escherichia coli [2] greater than 1000 µM.

Take `CC1(C)CC(C(=O)O)CC(C)(C)N1[O]`: the MIC against Escherichia coli [1] is greater than 1000 µM; in the assay with Escherichia coli [4] it was “<=0.045 uM”. In addition, the MBEC entry in the assay with Escherichia coli [3] is “<=800 uM”; in the assay with Escherichia coli [2] it was greater than 1000 µM.

Turning to `CC1(C)CC(C(=O)NCCCC[C@H](NC(=O)[C@@H](N)CCCCNC(=O)C2CC(C)(C)N([O])C(C)(C)C2)C(=O)N2CCN(c3cc4c(cc3F)c(=O)c(C(=O)O)cn4C3CC3)CC2)CC(C)(C)N1[O]`, the Activity was 98% with Escherichia coli [5]; 1.82 log10CFU in the assay on Escherichia coli [6]; 50% in the assay on Escherichia coli [8]; 99.9% in the assay with Escherichia coli [11]; 2.69 log10CFU in the assay with Escherichia coli [14]; 93% in the assay on Escherichia coli [15]. The Activity with Escherichia coli [16] was 1.35 log10CFU; with Escherichia coli [17], greater than 99%; in the assay with Escherichia coli [18] it was 99.7%. Moreover, the MIC result in the assay on Escherichia coli [1] was “<=10.5 uM”. Further, the outcome in the assay with Escherichia coli [7], with Escherichia coli [12] and in the assay on Escherichia coli [13] was Active. The Ratio in the assay on Escherichia coli [9] was determined as 2. Moreover, the “fold change (FC)” value in the assay with Escherichia coli [10] is reported as 3. Also, the MBEC result with Escherichia coli [2] is given as “<=400 uM”. In the assay with T-24, the IC50 is greater than 500 µM.

For the compound `CON1C(C)(C)CC(C(=O)NCCCC[C@H](NC(=O)[C@@H](N)CCCCNC(=O)C2CC(C)(C)N(OC)C(C)(C)C2)C(=O)N2CCN(c3cc4c(cc3F)c(=O)c(C(=O)O)cn4C3CC3)CC2)CC1(C)C`, in the assay on Escherichia coli [1] (setting [19]), the minimal inhibitory concentration (MIC) is no more than 81.6 µM. Besides, in the assay with Escherichia coli [2], the MBEC is greater than 650 µM.

Consider `O=C(O)c1cn(C2CC2)c2cc(N3CCNCC3)c(F)cc2c1=O` [CIPROFLOXACIN], for which, in the assay on Escherichia coli [1] (setting [19]), the MIC is no more than 0.045 µM. In addition, the MBEC result in the assay with Escherichia coli [2] is reported as “<=800 uM”.

`CC1(C)CC(C(=O)NCCCC[C@H](N)C(=O)N2CCN(c3cc4c(cc3F)c(=O)c(C(=O)O)cn4C3CC3)CC2)CC(C)(C)N1[O]` had an MIC against Escherichia coli [1] of less than 1.95 µM. In addition, the MBEC in the assay on Escherichia coli [2] is greater than 1000 µM.

Usually MIC stands for the lowest concentration found to suppress growth. In general, IC50 refers to the concentration at which inhibition is half-maximal.

Values taken from ChEMBL document CHEMBL4334425, “Eradicating uropathogenic Escherichia coli biofilms with a ciprofloxacin-dinitroxide conjugate” (Medchemcomm, 2019).
